{
  "source": "the NIST ThermoML archive (doi:10.1021/je034213q)",
  "conditions": "Gas",
  "note": "± gives the expanded uncertainty stated by the source.",
  "data": [
    {"smiles": "FC(F)C(F)(F)F", "note": "[pentafluoroethane]", "values": [
      {"measurement": "speed of sound", "setting": "277.16 K, 20.94 kPa", "result": "144.94 ± 0.2", "unit": "m/s"},
      {"measurement": "speed of sound", "setting": "277.16 K, 40.92 kPa", "result": "144.49 ± 0.2", "unit": "m/s"},
      {"measurement": "speed of sound", "setting": "277.16 K, 60.65 kPa", "result": "144.05 ± 0.2", "unit": "m/s"},
      {"measurement": "speed of sound", "setting": "277.16 K, 80.97 kPa", "result": "143.59 ± 0.2", "unit": "m/s"},
      {"measurement": "speed of sound", "setting": "277.16 K, 101.09 kPa", "result": "143.13 ± 0.2", "unit": "m/s"},
      {"measurement": "speed of sound", "setting": "277.16 K, 121.01 kPa", "result": "142.67 ± 0.2", "unit": "m/s"},
      {"measurement": "speed of sound", "setting": "277.16 K, 141.08 kPa", "result": "142.2 ± 0.2", "unit": "m/s"},
      {"measurement": "speed of sound", "setting": "277.16 K, 161.07 kPa", "result": "141.73 ± 0.2", "unit": "m/s"},
      {"measurement": "speed of sound", "setting": "277.16 K, 180.84 kPa", "result": "141.26 ± 0.19", "unit": "m/s"},
      {"measurement": "speed of sound", "setting": "277.16 K, 198.8 kPa", "result": "140.83 ± 0.19", "unit": "m/s"},
      {"measurement": "speed of sound", "setting": "303.14 K, 10.51 kPa", "result": "151.5 ± 0.2", "unit": "m/s"},
      {"measurement": "speed of sound", "setting": "303.14 K, 20.76 kPa", "result": "151.31 ± 0.2", "unit": "m/s"},
      {"measurement": "speed of sound", "setting": "303.14 K, 40.75 kPa", "result": "150.97 ± 0.2", "unit": "m/s"},
      {"measurement": "speed of sound", "setting": "303.14 K, 60.79 kPa", "result": "150.62 ± 0.2", "unit": "m/s"},
      {"measurement": "speed of sound", "setting": "303.14 K, 80.27 kPa", "result": "150.28 ± 0.2", "unit": "m/s"},
      {"measurement": "speed of sound", "setting": "303.14 K, 100.78 kPa", "result": "149.93 ± 0.2", "unit": "m/s"},
      {"measurement": "speed of sound", "setting": "303.14 K, 120.91 kPa", "result": "149.57 ± 0.2", "unit": "m/s"},
      {"measurement": "speed of sound", "setting": "303.14 K, 140.84 kPa", "result": "149.22 ± 0.2", "unit": "m/s"},
      {"measurement": "speed of sound", "setting": "303.14 K, 160.84 kPa", "result": "148.87 ± 0.2", "unit": "m/s"},
      {"measurement": "speed of sound", "setting": "303.14 K, 180.99 kPa", "result": "148.5 ± 0.2", "unit": "m/s"},
      {"measurement": "speed of sound", "setting": "303.14 K, 200.32 kPa", "result": "148.16 ± 0.2", "unit": "m/s"},
      {"measurement": "speed of sound", "setting": "303.14 K, 300.92 kPa", "result": "146.32 ± 0.2", "unit": "m/s"},
      {"measurement": "speed of sound", "setting": "303.14 K, 398.68 kPa", "result": "144.47 ± 0.2", "unit": "m/s"},
      {"measurement": "speed of sound", "setting": "303.14 K, 465.23 kPa", "result": "143.19 ± 0.2", "unit": "m/s"},
      {"measurement": "speed of sound", "setting": "313.15 K, 10.5 kPa", "result": "153.84 ± 0.2", "unit": "m/s"},
      {"measurement": "speed of sound", "setting": "313.15 K, 20.68 kPa", "result": "153.68 ± 0.2", "unit": "m/s"},
      {"measurement": "speed of sound", "setting": "313.15 K, 40.59 kPa", "result": "153.37 ± 0.2", "unit": "m/s"},
      {"measurement": "speed of sound", "setting": "313.15 K, 60.28 kPa", "result": "153.06 ± 0.2", "unit": "m/s"},
      {"measurement": "speed of sound", "setting": "313.15 K, 80.59 kPa", "result": "152.74 ± 0.2", "unit": "m/s"},
      {"measurement": "speed of sound", "setting": "313.15 K, 100.57 kPa", "result": "152.43 ± 0.2", "unit": "m/s"},
      {"measurement": "speed of sound", "setting": "313.15 K, 120.77 kPa", "result": "152.11 ± 0.2", "unit": "m/s"},
      {"measurement": "speed of sound", "setting": "313.15 K, 140.78 kPa", "result": "151.79 ± 0.2", "unit": "m/s"},
      {"measurement": "speed of sound", "setting": "313.15 K, 160.71 kPa", "result": "151.47 ± 0.2", "unit": "m/s"},
      {"measurement": "speed of sound", "setting": "313.15 K, 180.78 kPa", "result": "151.14 ± 0.2", "unit": "m/s"},
      {"measurement": "speed of sound", "setting": "313.15 K, 200.47 kPa", "result": "150.82 ± 0.2", "unit": "m/s"},
      {"measurement": "speed of sound", "setting": "313.15 K, 300.67 kPa", "result": "149.18 ± 0.2", "unit": "m/s"},
      {"measurement": "speed of sound", "setting": "313.15 K, 400.7 kPa", "result": "147.49 ± 0.2", "unit": "m/s"},
      {"measurement": "speed of sound", "setting": "313.15 K, 480.34 kPa", "result": "146.12 ± 0.2", "unit": "m/s"},
      {"measurement": "speed of sound", "setting": "323.14 K, 10.7 kPa", "result": "156.16 ± 0.21", "unit": "m/s"},
      {"measurement": "speed of sound", "setting": "323.14 K, 20.42 kPa", "result": "156.02 ± 0.21", "unit": "m/s"},
      {"measurement": "speed of sound", "setting": "323.14 K, 40.64 kPa", "result": "155.73 ± 0.21", "unit": "m/s"},
      {"measurement": "speed of sound", "setting": "323.14 K, 60.8 kPa", "result": "155.44 ± 0.21", "unit": "m/s"},
      {"measurement": "speed of sound", "setting": "323.14 K, 80.84 kPa", "result": "155.16 ± 0.21", "unit": "m/s"},
      {"measurement": "speed of sound", "setting": "323.14 K, 100.74 kPa", "result": "154.87 ± 0.21", "unit": "m/s"},
      {"measurement": "speed of sound", "setting": "323.14 K, 120.86 kPa", "result": "154.58 ± 0.21", "unit": "m/s"},
      {"measurement": "speed of sound", "setting": "323.14 K, 140.92 kPa", "result": "154.29 ± 0.2", "unit": "m/s"},
      {"measurement": "speed of sound", "setting": "323.14 K, 160.95 kPa", "result": "154 ± 0.2", "unit": "m/s"},
      {"measurement": "speed of sound", "setting": "323.14 K, 180.33 kPa", "result": "153.71 ± 0.2", "unit": "m/s"},
      {"measurement": "speed of sound", "setting": "323.14 K, 200.71 kPa", "result": "153.41 ± 0.2", "unit": "m/s"},
      {"measurement": "speed of sound", "setting": "323.14 K, 300.75 kPa", "result": "151.93 ± 0.2", "unit": "m/s"},
      {"measurement": "speed of sound", "setting": "323.14 K, 400.83 kPa", "result": "150.41 ± 0.2", "unit": "m/s"},
      {"measurement": "speed of sound", "setting": "323.14 K, 501.38 kPa", "result": "148.85 ± 0.2", "unit": "m/s"},
      {"measurement": "speed of sound", "setting": "343.13 K, 40.76 kPa", "result": "160.33 ± 0.21", "unit": "m/s"},
      {"measurement": "speed of sound", "setting": "343.13 K, 60.62 kPa", "result": "160.09 ± 0.21", "unit": "m/s"},
      {"measurement": "speed of sound", "setting": "343.13 K, 80.21 kPa", "result": "159.86 ± 0.21", "unit": "m/s"},
      {"measurement": "speed of sound", "setting": "343.13 K, 100.97 kPa", "result": "159.61 ± 0.21", "unit": "m/s"},
      {"measurement": "speed of sound", "setting": "343.13 K, 120.73 kPa", "result": "159.37 ± 0.21", "unit": "m/s"},
      {"measurement": "speed of sound", "setting": "343.13 K, 140.89 kPa", "result": "159.13 ± 0.21", "unit": "m/s"},
      {"measurement": "speed of sound", "setting": "343.13 K, 160.51 kPa", "result": "158.89 ± 0.21", "unit": "m/s"},
      {"measurement": "speed of sound", "setting": "343.13 K, 180.9 kPa", "result": "158.65 ± 0.21", "unit": "m/s"},
      {"measurement": "speed of sound", "setting": "343.13 K, 197.5 kPa", "result": "158.44 ± 0.21", "unit": "m/s"},
      {"measurement": "speed of sound", "setting": "343.13 K, 300.29 kPa", "result": "157.19 ± 0.21", "unit": "m/s"},
      {"measurement": "speed of sound", "setting": "343.13 K, 400.48 kPa", "result": "155.94 ± 0.21", "unit": "m/s"},
      {"measurement": "speed of sound", "setting": "343.13 K, 500.26 kPa", "result": "154.68 ± 0.21", "unit": "m/s"},
      {"measurement": "speed of sound", "setting": "343.13 K, 600.3 kPa", "result": "153.41 ± 0.2", "unit": "m/s"},
      {"measurement": "speed of sound", "setting": "343.14 K, 20.77 kPa", "result": "160.58 ± 0.21", "unit": "m/s"},
      {"measurement": "speed of sound", "setting": "343.14 K, 40.77 kPa", "result": "160.34 ± 0.21", "unit": "m/s"},
      {"measurement": "speed of sound", "setting": "343.14 K, 59.94 kPa", "result": "160.11 ± 0.21", "unit": "m/s"},
      {"measurement": "speed of sound", "setting": "343.14 K, 80.48 kPa", "result": "159.86 ± 0.21", "unit": "m/s"},
      {"measurement": "speed of sound", "setting": "343.14 K, 100.55 kPa", "result": "159.62 ± 0.21", "unit": "m/s"},
      {"measurement": "speed of sound", "setting": "343.14 K, 120.9 kPa", "result": "159.38 ± 0.21", "unit": "m/s"},
      {"measurement": "speed of sound", "setting": "343.14 K, 140.63 kPa", "result": "159.14 ± 0.21", "unit": "m/s"},
      {"measurement": "speed of sound", "setting": "343.14 K, 160.64 kPa", "result": "158.9 ± 0.21", "unit": "m/s"},
      {"measurement": "speed of sound", "setting": "343.14 K, 180.84 kPa", "result": "158.65 ± 0.21", "unit": "m/s"},
      {"measurement": "speed of sound", "setting": "343.14 K, 200.46 kPa", "result": "158.41 ± 0.21", "unit": "m/s"},
      {"measurement": "speed of sound", "setting": "343.14 K, 300.55 kPa", "result": "157.19 ± 0.21", "unit": "m/s"},
      {"measurement": "speed of sound", "setting": "343.14 K, 399.77 kPa", "result": "155.96 ± 0.21", "unit": "m/s"},
      {"measurement": "speed of sound", "setting": "343.14 K, 501.32 kPa", "result": "154.68 ± 0.21", "unit": "m/s"}
    ]}
  ]
}
